Columns and labels:
[1] = tested on: genomically recoded organism (GRO); assay: titration of optimal NSAA concentration by GFP_UAG fluorescence assay (FL/ODmax); type: cell-based, E. coli; details: GRO bearing synthetase/tRNA and GFP_UAG reporter plasmids; NSAA range 10 uM to 10 mM
Protocol: First, genomically recoded organisms (“GRO”) as described above were cultured in triplicate in LB-Lennox broth, across a dilution series from 1 uM to 10 mM (incl. 0 uM) NSAA in a 96-well plate. GRO growth (OD600) was kinetically monitored to quantify growth rates and reductions were measured as time to OD600=0.4 and Vmax (dODmax/dt). These experiments helped define the sub-toxic concentration range of an NSAA of interest. Second, the GRO strain was transformed with an L-arabinose-inducible plasmid bearing the synthetase/tRNA that are specific for the NSAA side chain reactivity being evaluated. See Lajoie, M. J. et al. Genomically recoded organisms expand biological functions. […] Only GROs will read these codons as sense codons, not terminate the GFP_UAG translation, and generate NSAA-containing GFP that fluoresces. Patent translation of GFP_UAG (e.g., fluorescence) requires culture in NSAA and transformation with a plasmid bearing the proper synthetase/tRNA pair to use that NSAA. In this way, GFP fluorescence can be a quantitative metric for NSAA-containing protein translation. […] Due to auto-fluorescence of LB-Lennox media, the cells were washed twice in phosphate-buffered saline (pH 7.2) by centrifugation at 4,000×g for 5 minutes. […] GFP translation was normalized by OD600 as fluorescence divided by OD600 when measured (FL/OD), and optimal concentration of NSAA was FL/ODmax.

[2] = tested on: genomically recoded organism (GRO); type: cell-based, E. coli; details: pAzF held constant at 1 mM; for reductions in FL/OD (GFP fluorescence divided by OD600): alkyne containing compound varied from 10 uM-10 mM, GRO culture; for reductions in OD consistent with reaction with pAzF: canonical amino acid controls
From the text: To meet the third criteria, NSAA expression using previously evolved amino acyl synthetase/tRNA pairs was used. Synthetases charge a cognate amino acid substrate onto the cognate tRNA pair. An amino acid, a synthetase, and a tRNA form a triad that is required to make that amino acid competent for translation and addition to the nascent polypeptide chain. Amino acid/synthetase/tRNA triads are generally specific thereby preserving the fidelity of the translation of genetic code into proteins. As such, new synthetase/tRNA pairs that function specifically with each other are generated and used to add new NSAAs to the genetic code (or to evaluate the bio-orthogonality of bond-forming NSAA candidates). Alternatively, known synthetase/tRNA pairs are used to evaluate the bio-orthgonality of bond-forming NSAA candidate pairs.
First, genomically recoded organisms (“GRO”) as described above were cultured in triplicate in LB-Lennox broth, across a dilution series from 1 uM to 10 mM (incl. 0 uM) NSAA in a 96-well plate. GRO growth (OD600) was kinetically monitored to quantify growth rates and reductions were measured as time to OD600=0.4 and Vmax (dODmax/dt). These experiments helped define the sub-toxic concentration range of an NSAA of interest. Second, the GRO strain was transformed with an L-arabinose-inducible plasmid bearing the synthetase/tRNA that are specific for the NSAA side chain reactivity being evaluated. See Lajoie, M. J. et al. Genomically recoded organisms expand biological functions. Science 342, 357-360, doi:10.1126/science.1241459 (2013) hereby incorporated by reference in its entirety. […] Only GROs will read these codons as sense codons, not terminate the GFP_UAG translation, and generate NSAA-containing GFP that fluoresces. Patent translation of GFP_UAG (e.g., fluorescence) requires culture in NSAA and transformation with a plasmid bearing the proper synthetase/tRNA pair to use that NSAA. In this way, GFP fluorescence can be a quantitative metric for NSAA-containing protein translation. […] Due to auto-fluorescence of LB-Lennox media, the cells were washed twice in phosphate-buffered saline (pH 7.2) by centrifugation at 4,000×g for 5 minutes. After the second wash, the cells were resuspended in 150 uL PBS for measurement of growth (OD600) and GFP fluorescence (excitation 388 nm, emission 510 nm) using a Biotek Synergy H1/H4 or a Molecular Devices M5 Spectrophotometer. GFP translation was normalized by OD600 as fluorescence divided by OD600 when measured (FL/OD), and optimal concentration of NSAA was FL/ODmax.
Once optimal NSAA concentration was determined, a candidate NSAA is tested to determine whether it impairs translation of the other cognate pair. […] After culture and washing as above, FL/OD was measured and plotted as a function of the NSAA being varied. […]

SMILES | reductions in FL/OD (GFP fluorescence divided by OD600) [2] | reductions in OD consistent with reaction with pAzF [2] | further results
[N-]=[N+]=Nc1ccc(C[C@H](N)C(=O)O)cc1 [pAzF, para-azido-phenylalanine] |  |  | optimal concentration of NSAA (FL/ODmax) [1]: 1 mM
C#CCONCC(=O)O [pPrG, propargyl-oxyglycine] | no reductions in FL/OD |  | 
N[C@@H](CO)C(=O)O [serine] |  | do not show any reductions in OD | 
N[C@@H](Cc1ccc(O)cc1)C(=O)O [tyrosine] |  | do not show any reductions in OD | 
C1#CCCCCCC1 [unsubstituted cyclo-octynes] | no reductions in FL/OD |  | 

From patent publication US10910085B2, “Methods of making polypeptides with non-standard amino acids using genomically recoded organisms” (President and Fellows of Harvard College, priority 2014, dated 2021)
